Results: US20160077079A1, “THE CHILDREN'S HOSPITAL OF PHILADELPHIA” (THE CHILDREN'S HOSPITAL OF PHILADELPHIA, priority 2013, published 2016)

Assays:
NCI-H716 = test: GLP-1 secretion in NCI-H716 L-cells, GLP-1 concentration by ELISA; assay type: cell-based, human; settings: NCI-H716 cells pre-treated 48 hours with inhibitor
From the text: Glucagon-like peptide-1 (GLP-1) has numerous physiological functions, including enhancement of glucose-stimulated insulin secretion, stimulation of β-cell anti-apoptosis and proliferation and inhibition of glucagon secretion, food intake and gastric emptying. These antidiabetic properties of GLP-1 have generated intense interest in the use of this short peptide and its agonists for the treatment of patients with type 2 diabetes. A better understanding of the underlying mechanism of GLP-1 secretion may lead to novel approaches used for the treatment of type 2 diabetes. TCF7L2 is the most strongly associated locus with type 2 diabetes and has been known to bind with the promoter region of the proglucagon gene for many years. […] As such, we investigated if existing PARP-1 inhibitors, previously tested in oncology studies, could have a GLP-1 agonist effect. We leveraged the standard human L-cell line, NCI-H716, for GLP-1 secretion assessment to investigate this possible link. We pre-treated the cells for 48 hours with three different PARP-1 inhibitors, Olaparib, Rucaparib and Iniparib, with or without glucose stimulation (16.8 mM). We measured the resulting GLP-1 concentration using an ELISA kit (Millipore).

[1] = system: SNP rs7903146 region of TCF7L2 (HCT116 nuclear extracts); test: SILAC oligo pull-down quantifying protein binding to the SNP rs7903146 oligonucleotide with and without insulin treatment; assay type: cell-based, human; settings: HCT116 cells, 1 uM insulin for 1 hour
Experimental: Human HCT 116 cells were cultured in DMEM (4.5 g/l glucose, 10% FCS, 100 U/mL penicillin and 100 íg/mL streptomycin). For insulin stimulation experiments, cells were treated with 1 uM insulin for 1 hour. For SILAC experiments, Cultures were grown according to standard cell-culture procedures in SILAC-light and SILAC-heavy labeled Dulbecco's Modified Eagle Medium (DMEM, ThermoFisher) supplied with 10% dialyzed fetal bovine serum (FBS), ^13C6-lysine and ^13C6-arginine. Cells were washed by cold phosphate-buffered saline (PBS) and harvested by scraping, centrifugation for 5 min at 5000 rpm at 4° C. 10^8 Cells were lysed in 250 ul low salt buffer (10 mM HEPES, 1.5 mM MgCl2, 10 mM KCl, 0.5% NP-40, proteasome inhibitor, phosphatase inhibitor, 10% glycerol, pH 7.9) by incubation on ice for 20 min with vortex 10 seconds per 5 minutes. The nuclei were separated from cytoplasmic fraction by centrifugation 10,000 rpm for 1 min at 4° C. The nuclei pellets were washed once by cold low salt buffer, harvested by centrifugation. […]
The sample was digested with trypsin and analyzed with nanoLC/MS/MS at the Penn Proteomics Core. […] The data were analyzed with Sequest (ThermoFinnigan, San Jose, Calif.; version SRF v. 5). […] The quantification of the SILAC peaks was performed with ProteolQ with customized modification so that the software can use the zoom scanned SLICA peaks for quantification.
To investigate dynamic binding of Parp-1, ATP-dependent RNA helicase A and Thrap3 for the SNP rs7903146 region, we used stable isotope labeling with amino acids in cell culture (SILAC) (Ong, Blagoev et al. 2002) to quantify the binding affinity changes between with and without insulin treatment.
The heavy cells were isotopically labeled in SILAC medium supplied with ^13C6-lysine and ^13C6-arginine and treated with insulin, while the light cells […] served as a control. […] With this approach, we quantified the relative protein abundances including Parp-1, ATP-dependent RNA helicase A and Thrap3 between treatment and without treatment of insulin.

[2] = absence of glucose, compared with glucose-elevated level
[3] = with glucose stimulation (16.8 mM)

| Molecule | GLP-1 secretion (GLP-1 concentration by ELISA) (NCI-H716; [2]) | GLP-1 secretion (GLP-1 concentration by ELISA) (NCI-H716; [3]) | ATP-dependent RNA helicase A binding to rs7903146 oligo, increase upon insulin stimulation [1] | Parp-1 binding to rs7903146 oligo, up-regulation upon insulin stimulation [1] | Thrap3 binding to rs7903146 oligo, increase upon insulin stimulation [1] |
| --- | --- | --- | --- | --- | --- |
| NC(=O)c1ccc(I)c([N+](=O)[O-])c1 [Iniparib] | equal or greater level of GLP-1 secretion | elevated further | – | – | – |
| O=C(c1cc(Cc2n[nH]c(=O)c3ccccc23)ccc1F)N1CCN(C(=O)C2CC2)CC1 [Olaparib] | equal or greater level of GLP-1 secretion | elevated further | – | – | – |
| CNCc1ccc(-c2[nH]c3cc(F)cc4c3c2CCNC4=O)cc1 [Rucaparib] | equal or greater level of GLP-1 secretion | elevated further | – | – | – |
| insulin | – | – | 12 fold | 20% | 7 fold |
